These results are taken from patent publication US20130109655A1, “Method for mitigating of Prostaglandin E2 reducing side effects of non-steroidal anti-inflammatory drugs” (priority 2011, published 2013).

Assay [1] has as its system prostaglandin e2. Conditions: cited from earlier work; for change in serum levels of prostaglandin e2: niceritrol alone, Aspirin® added to niceritrol.
The test system of assay [2] is prostaglandin e2. The conditions noted are these: cited from earlier work; for effect on nicotine-initiated prostaglandin e2 production: cells treated with 100 mcM nicotine, NSAID 0.1 to 100 mcM; for prostaglandin e2 concentration: nicotine (100 mcM) pre-treated cells, highest NSAID concentration (log M=−4), absence of IL-18, basal 337 pM, digitised from published graph.

Assay [3] deals with prostaglandin e2. The conditions noted are these: cited from earlier work; for prostaglandin e2 concentration: nicotine pre-treated cells, highest NSAID concentration (log M=−4), absence of IL-18, basal 0.35 nM, digitised from published graph; for effect on nicotine-induced PGE2 production: nicotine-treated cells.
Assay [4] has as its system prostaglandin e2 like substance (PGe2-LS). The conditions noted are these: cited from earlier work; for PGe2-LS release (M±SE): samples treated with indomethacin and the pyridine derivative, control group 0.54±0.06, n=5.
The subject of assay [5] is prostaglandin e2. Kind of assay: serum prostaglandin e2 levels in normal male volunteers after niceritrol and Aspirin® (Nozaki et al. 1987). The format is in vivo, human. Conditions: after administration of niceritrol and Aspirin®; basal 23.3±11.8 pg/ml. The text has this: FIG. 3. is prostaglandin e2 section extracted by inventors from graph of FIG. 1. from publication “Increased compliance of niceritrol treatment by addition of Aspirin®: relationship between changes in prostaglandins and skin flushing.” (Nozaki, S. et al., 1987, Int J Clin Pharmacol Ther Toxicol, v 25, p: 643-7). Inventors marked on said figure extracted by inventors by using UN-SCAN-IT® basal (52.3, 33.6, 26.6, 21.2, 19.1, 18.1, 16.8, 16.0, 15.1, 13.9), and after niceritrol and Aspirin® administration (46.2, 16.6, 42.0, 44.1, 8.2, 11.4, 18.6, 9.9, 27.6, 6.2) concentration coordinates (pg/ml) of prostaglandin e2. […]
Inventors used UN-SCAN-IT® to obtain digital concentration data from prostaglandin e2 section of the graph from the FIG. 1. of the publication (FIG. 3.). The obtained by inventors serum basal (52.3, 33.6, 26.6, 21.2, 19.1, 18.1, 16.8, 16.0, 15.1, 13.9), and after niceritrol and Aspirin® administration (46.2, 16.6, 42.0, 44.1, 8.2, 11.4, 18.6, 9.9, 27.6, 6.2) prostaglandin e2 digital levels (pg/ml) were statistically analysed using paired t-test.

For assay [6], the system named is radioimmunoassayed prostaglandin E (R-PGE). The conditions noted are these: naproxen and nicotinic acid, basal 35.6±29.8, cited from earlier work.
Assay [7] shares this test system. Conditions: basal 21±10 pg/ml, cited from earlier work.

Values joined by “and” are separate entries in the source; they are usually repeats but may differ in a detail not shown here. Equal values may be shown once. Read-outs that look alike come from different tables or passages of the source.

In the case of `CC(=O)Oc1ccccc1C(=O)O` [Aspirin®], the “change in serum levels of prostaglandin e2” value in the assay on prostaglandin e2 [1] is reported as “significantly decreased”.

For the molecule `CS(=O)(=O)Nc1ccc([N+](=O)[O-])cc1OC1CCCCC1` [NS398], in the assay with prostaglandin e2 [2], the “effect on nicotine-initiated prostaglandin e2 production” value is given as “suppressed” and the “prostaglandin e2 concentration” value is reported as 761 pM. Further, in the assay on prostaglandin e2 [3], the “prostaglandin e2 concentration” value was 0.55 nM and the “effect on nicotine-induced PGE2 production” value is reported as “inhibited”.

Turning to `COc1ccc2c(c1)c(CC(=O)O)c(C)n2C(=O)c1ccc(Cl)cc1` [indomethacin], in the assay on prostaglandin e2 [2], the “effect on nicotine-initiated prostaglandin e2 production” value is “suppressed” and the “prostaglandin e2 concentration” value is recorded as 768 pM. Also, in the assay with prostaglandin e2 [3], the “prostaglandin e2 concentration” value is given as 0.50 nM and the “effect on nicotine-induced PGE2 production” value is listed as “inhibited”. For the same molecule, the “effect on PGe2-LS release stimulated by pyridine derivatives” value in assay [4] (indomethacin treatment) was “reduced”.

For `O=C(OCC(COC(=O)c1cccnc1)(COC(=O)c1cccnc1)COC(=O)c1cccnc1)c1cccnc1` [niceritrol], the “serum prostaglandin e2 level, individual volunteers” value in the assay with prostaglandin e2 [1] (after niceritrol and Aspirin® administration, 10 normal male volunteers, digitised from published graph) is 46.2 pg/mL and 6.2 pg/mL and 16.6 pg/mL and 42.0 pg/mL and 44.1 pg/mL and 8.2 pg/mL and 11.4 pg/mL and 18.6 pg/mL and 9.9 pg/mL and 27.6 pg/mL. Further, in the assay with prostaglandin e2 [1], the “change in serum levels of prostaglandin e2” value is reported as “significantly increased”. For the same molecule, the “mean (M±SD) serum prostaglandin e2 concentration” value in the assay with prostaglandin e2 [5] is 23.1 ± 15.8 pg/mL.

Regarding `O=C(O)c1cccnc1` [nicotinic acid], the “actual release of R-PGE (M±SE)” value is listed as 8.2±13.8 pg/100 ml tissue×min in assay [6] (5 min), 10.6±16.6 pg/100 ml tissue×min in assay [6] (10 min), 18.8±16.2 pg/100 ml tissue×min in assay [6] (20 min) and 15.1±13 pg/100 ml tissue×min in assay [6] (60 min). For the same molecule, the “plasma concentration of R-PGE (M±SE)” value in assay [7] (infusion of nicotinic acid) is 49 ± 7 pg/mL; in assay [7] (nicotinic acid infusion after naproxen treatment, n=3), 8 ± 2 pg/mL. In addition, the “PGe2-LS release (M±SE)” value in assay [4] is 0.63 ± 0.03 ng/min.

On to `OCc1cccnc1` [nicotinyl alcohol], for which the “PGe2-LS release (M±SE)” value in assay [4] is 0.52 ± 0.06 ng/min.

In the case of `CN(C)C(=O)Oc1ccc[n+](C)c1` [pyridostigmine bromide], the “PGe2-LS release (M±SE)” value in assay [4] is 0.50 ± 0.06 ng/min.

As to `Cc1ncc(CO)c(CO)c1O.Cl` [pyridoxine hydrochloride], the “PGe2-LS release (M±SE)” value in assay [4] was 0.44 ± 0.02 ng/min.
